# According to the kinase profiling compilation of Christmann-Franck et al. (2016):
# Where “and” joins values, the source holds several entries; their conditions need not be identical. Identical values can stand only once.
# What was measured:
# Assay in all cases: radiometric filter-binding kinase assay, Kinase HotSpot
# Settings in all cases: compound 0.5 µM; ATP 10 µM
# AURKA (human) = AURKA (human) (UniProt O14965)
# CAMK4 (human) = CAMK4 (human) (UniProt Q16566)
# CAMKK2 (human) = CAMKK2 (human) (UniProt Q96RR4)
# CDC42BPA (human) = CDC42BPA (human) (UniProt Q5VT25)
# CDK2 CCNE1 (human) = CDK2 CCNE1 (human) (UniProt P24941+P24864)
# CDK6 CCND3 (human) = CDK6 CCND3 (human) (UniProt P30281+Q00534)
# Sequence of CDK6 CCND3 (human) (P30281 whole entry, looked up): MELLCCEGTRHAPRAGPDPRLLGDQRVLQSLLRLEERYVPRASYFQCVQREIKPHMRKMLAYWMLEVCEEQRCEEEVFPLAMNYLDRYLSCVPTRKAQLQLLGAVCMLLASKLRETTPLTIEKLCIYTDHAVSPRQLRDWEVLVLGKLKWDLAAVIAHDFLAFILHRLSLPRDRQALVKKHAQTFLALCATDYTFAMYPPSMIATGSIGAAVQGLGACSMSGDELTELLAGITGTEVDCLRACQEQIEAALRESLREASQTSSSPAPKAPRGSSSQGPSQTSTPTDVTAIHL
# Sequence of CDK6 CCND3 (human) (Q00534 whole entry, looked up): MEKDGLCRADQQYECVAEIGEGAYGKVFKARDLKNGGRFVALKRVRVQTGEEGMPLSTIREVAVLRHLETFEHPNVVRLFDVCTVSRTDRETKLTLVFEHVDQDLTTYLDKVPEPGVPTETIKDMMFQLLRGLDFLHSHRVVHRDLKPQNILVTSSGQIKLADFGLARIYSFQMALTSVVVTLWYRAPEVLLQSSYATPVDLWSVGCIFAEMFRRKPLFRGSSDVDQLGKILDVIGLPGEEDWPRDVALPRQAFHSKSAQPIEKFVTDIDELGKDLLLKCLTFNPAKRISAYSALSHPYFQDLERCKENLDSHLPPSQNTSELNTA
# CHEK1 (human) = CHEK1 (human) (UniProt O14757)
# CLK1 (human) = CLK1 (human) (UniProt P49759)
# Sequence of CLK1 (human) (P49759 whole entry, looked up): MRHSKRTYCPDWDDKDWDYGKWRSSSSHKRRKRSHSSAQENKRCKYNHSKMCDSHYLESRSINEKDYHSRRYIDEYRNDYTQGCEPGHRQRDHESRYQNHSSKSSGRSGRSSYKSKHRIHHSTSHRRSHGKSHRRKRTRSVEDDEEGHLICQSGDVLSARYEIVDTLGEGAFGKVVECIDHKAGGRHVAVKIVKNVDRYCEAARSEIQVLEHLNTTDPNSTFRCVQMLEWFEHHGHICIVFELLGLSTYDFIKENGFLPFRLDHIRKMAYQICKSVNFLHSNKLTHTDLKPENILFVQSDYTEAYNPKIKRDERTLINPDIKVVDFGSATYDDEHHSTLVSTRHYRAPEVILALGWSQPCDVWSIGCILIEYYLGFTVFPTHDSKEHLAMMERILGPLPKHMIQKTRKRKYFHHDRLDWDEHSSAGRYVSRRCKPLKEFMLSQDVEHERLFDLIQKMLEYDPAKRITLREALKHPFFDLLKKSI
# CSNK2A1 (human) = CSNK2A1 (human) (UniProt P68400)
# DCLK2 (human) = DCLK2 (human) (UniProt Q8N568)
# DYRK1B (human) = DYRK1B (human) (UniProt Q9Y463)
# EPHA1 (human) = EPHA1 (human) (UniProt P21709)
# EPHA3 (human) = EPHA3 (human) (UniProt P29320)
# FGFR3 (human) = FGFR3 (human) (UniProt P22607)
# FLT1 (human) = FLT1 (human) (UniProt P17948)
# FYN (human) = FYN (human) (UniProt P06241)
# GRK4 (human) = GRK4 (human) (UniProt P32298)
# GRK7 (human) = GRK7 (human) (UniProt Q8WTQ7)
# Sequence of GRK7 (human) (Q8WTQ7 whole entry, looked up): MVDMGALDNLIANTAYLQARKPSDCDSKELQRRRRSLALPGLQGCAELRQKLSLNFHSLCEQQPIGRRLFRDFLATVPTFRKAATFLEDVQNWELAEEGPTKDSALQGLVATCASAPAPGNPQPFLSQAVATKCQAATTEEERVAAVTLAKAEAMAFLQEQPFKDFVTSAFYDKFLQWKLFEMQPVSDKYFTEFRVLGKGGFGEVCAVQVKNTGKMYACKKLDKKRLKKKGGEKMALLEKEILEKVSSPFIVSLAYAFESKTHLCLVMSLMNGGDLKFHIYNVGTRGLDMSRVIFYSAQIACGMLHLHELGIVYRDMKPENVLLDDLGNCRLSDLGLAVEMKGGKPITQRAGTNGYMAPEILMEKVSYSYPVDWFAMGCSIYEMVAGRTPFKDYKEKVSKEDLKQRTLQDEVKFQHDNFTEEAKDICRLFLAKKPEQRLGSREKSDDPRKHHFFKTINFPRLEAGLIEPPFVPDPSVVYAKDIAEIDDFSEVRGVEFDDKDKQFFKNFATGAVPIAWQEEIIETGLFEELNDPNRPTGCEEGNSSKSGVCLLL
# HCK (human) = HCK (human) (UniProt P08631)
# LYN (human) = LYN (human) (UniProt P07948)
# MAP3K3 (human) = MAP3K3 (human) (UniProt Q99759)
# Sequence of MAP3K3 (human) (Q99759 whole entry, looked up): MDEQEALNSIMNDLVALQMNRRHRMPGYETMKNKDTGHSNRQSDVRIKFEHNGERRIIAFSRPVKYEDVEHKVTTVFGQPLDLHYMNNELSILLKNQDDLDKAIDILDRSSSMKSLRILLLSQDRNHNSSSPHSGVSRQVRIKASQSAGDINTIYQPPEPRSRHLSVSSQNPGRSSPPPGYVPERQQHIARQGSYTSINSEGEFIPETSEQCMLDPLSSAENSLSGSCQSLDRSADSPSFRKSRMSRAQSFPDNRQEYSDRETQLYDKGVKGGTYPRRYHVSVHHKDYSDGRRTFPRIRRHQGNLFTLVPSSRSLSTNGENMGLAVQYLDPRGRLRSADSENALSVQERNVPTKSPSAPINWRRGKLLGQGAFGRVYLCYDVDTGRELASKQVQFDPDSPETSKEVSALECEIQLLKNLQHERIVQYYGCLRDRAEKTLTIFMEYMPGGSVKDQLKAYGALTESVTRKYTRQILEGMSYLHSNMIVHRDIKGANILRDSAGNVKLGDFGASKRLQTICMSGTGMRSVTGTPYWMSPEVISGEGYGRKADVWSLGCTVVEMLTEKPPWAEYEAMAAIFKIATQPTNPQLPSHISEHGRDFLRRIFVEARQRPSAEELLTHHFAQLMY
# MAPK3 (human) = MAPK3 (human) (UniProt P27361)
# MAPK8 (human) = MAPK8 (human) (UniProt P45983)
# MARK2 (human) = MARK2 (human) (UniProt Q7KZI7)
# MET (human) = MET (human) (UniProt P08581)
# NEK1 (human) = NEK1 (human) (UniProt Q96PY6)
# NEK11 (human) = NEK11 (human) (UniProt Q8NG66)
# NTRK3 (human) = NTRK3 (human) (UniProt Q16288)
# PAK3 (human) = PAK3 (human) (UniProt O75914)
# PBK (human) = PBK (human) (UniProt Q96KB5)
# PLK1 (human) = PLK1 (human) (UniProt P53350)
# PRKCA (human) = PRKCA (human) (UniProt P17252)
# PRKCB2 (human) = PRKCB2 (human) (UniProt P05771)
# PRKCH (human) = PRKCH (human) (UniProt P24723)
# Sequence of PRKCH (human) (P24723 whole entry, looked up): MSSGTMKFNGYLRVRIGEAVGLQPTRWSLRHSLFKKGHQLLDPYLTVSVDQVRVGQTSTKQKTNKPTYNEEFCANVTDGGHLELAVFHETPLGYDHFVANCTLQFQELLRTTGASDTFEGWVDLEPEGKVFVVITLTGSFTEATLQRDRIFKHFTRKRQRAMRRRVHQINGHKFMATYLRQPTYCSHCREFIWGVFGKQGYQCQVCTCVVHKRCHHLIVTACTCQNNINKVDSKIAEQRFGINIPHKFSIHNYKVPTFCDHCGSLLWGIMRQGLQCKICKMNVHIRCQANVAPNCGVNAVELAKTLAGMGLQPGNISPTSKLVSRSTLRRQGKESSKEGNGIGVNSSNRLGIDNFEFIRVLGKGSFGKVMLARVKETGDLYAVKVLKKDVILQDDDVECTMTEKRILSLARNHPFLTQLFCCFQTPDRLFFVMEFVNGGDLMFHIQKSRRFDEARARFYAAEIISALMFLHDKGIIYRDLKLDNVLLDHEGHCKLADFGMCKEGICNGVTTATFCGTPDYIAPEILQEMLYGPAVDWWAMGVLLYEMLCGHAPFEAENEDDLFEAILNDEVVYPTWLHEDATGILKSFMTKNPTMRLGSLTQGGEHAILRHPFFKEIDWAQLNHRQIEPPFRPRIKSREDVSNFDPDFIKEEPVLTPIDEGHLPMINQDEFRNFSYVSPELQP
# PRKCZ (human) = PRKCZ (human) (UniProt Q05513)
# PTK2B (human) = PTK2B (human) (UniProt Q14289)
# RPS6KA4 KD2 (human) = RPS6KA4 KD2 (human) (UniProt O75676)
# Sequence of RPS6KA4 KD2 (human) (O75676 whole entry, looked up): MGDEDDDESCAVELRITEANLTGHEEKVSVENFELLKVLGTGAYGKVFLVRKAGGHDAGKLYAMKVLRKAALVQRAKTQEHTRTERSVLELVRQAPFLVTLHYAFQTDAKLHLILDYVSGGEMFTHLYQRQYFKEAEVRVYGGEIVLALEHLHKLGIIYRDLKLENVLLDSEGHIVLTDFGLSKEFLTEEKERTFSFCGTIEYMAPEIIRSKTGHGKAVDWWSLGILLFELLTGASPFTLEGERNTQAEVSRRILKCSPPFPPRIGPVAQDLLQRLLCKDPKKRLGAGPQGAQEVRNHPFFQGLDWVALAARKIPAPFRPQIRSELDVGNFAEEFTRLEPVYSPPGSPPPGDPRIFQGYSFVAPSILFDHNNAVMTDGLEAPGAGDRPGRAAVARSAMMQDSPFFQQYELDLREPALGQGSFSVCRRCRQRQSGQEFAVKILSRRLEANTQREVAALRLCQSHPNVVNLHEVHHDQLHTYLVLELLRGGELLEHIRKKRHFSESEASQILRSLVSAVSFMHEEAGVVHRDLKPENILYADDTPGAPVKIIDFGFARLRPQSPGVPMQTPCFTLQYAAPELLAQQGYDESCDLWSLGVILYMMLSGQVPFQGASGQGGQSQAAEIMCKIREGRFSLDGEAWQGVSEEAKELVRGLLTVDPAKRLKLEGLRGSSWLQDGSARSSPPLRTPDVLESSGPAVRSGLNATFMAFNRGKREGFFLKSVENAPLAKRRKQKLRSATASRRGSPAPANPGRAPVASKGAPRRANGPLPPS
# SIK2 (human) = SIK2 (human) (UniProt Q9H0K1)
# TBK1 (human) = TBK1 (human) (UniProt Q9UHD2)
# WNK2 (human) = WNK2 (human) (UniProt Q9Y3S1)
# YES1 (human) = YES1 (human) (UniProt P07947)
# MAPKAPK5 (human) = MAPKAPK5 (human) (UniProt Q8IW41)
# Sequence of AURKA (human) (O14965 whole entry, looked up): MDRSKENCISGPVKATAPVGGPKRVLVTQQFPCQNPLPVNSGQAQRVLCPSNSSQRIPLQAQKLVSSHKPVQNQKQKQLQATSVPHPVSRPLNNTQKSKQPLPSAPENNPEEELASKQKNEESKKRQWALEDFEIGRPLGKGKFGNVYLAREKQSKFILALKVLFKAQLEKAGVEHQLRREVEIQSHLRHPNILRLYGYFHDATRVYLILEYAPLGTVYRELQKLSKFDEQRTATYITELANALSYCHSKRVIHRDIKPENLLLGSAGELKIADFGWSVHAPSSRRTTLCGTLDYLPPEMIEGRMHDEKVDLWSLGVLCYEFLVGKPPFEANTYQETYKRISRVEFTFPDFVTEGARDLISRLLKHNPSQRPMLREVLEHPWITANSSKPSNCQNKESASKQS
smiles,measurement,setting,value
CC(C)c1nn(-c2c(Cl)cccc2Cl)c2nc(Cc3ccc(OCCO)cc3)nc(O)c12,residual activity,AURKA (human),107%
same,residual activity,CAMK4 (human),102%
same,residual activity,CAMKK2 (human),90.9%
same,residual activity,CDC42BPA (human),89.5%
same,residual activity,CDK2 CCNE1 (human),8.6%
same,residual activity,CDK6 CCND3 (human),46.6%
same,residual activity,CHEK1 (human),96.2%
same,residual activity,CLK1 (human),94.7%
same,residual activity,CSNK2A1 (human),88.8%
same,residual activity,DCLK2 (human),95.9%
same,residual activity,DYRK1B (human),99.9%
same,residual activity,EPHA1 (human),95%
same,residual activity,EPHA3 (human),86.2%
same,residual activity,FGFR3 (human),97%
same,residual activity,FLT1 (human),87.2%
same,residual activity,FYN (human),102%
same,residual activity,GRK4 (human),97.3%
same,residual activity,GRK7 (human),106%
same,residual activity,HCK (human),94.7%
same,residual activity,LYN (human),102% and 92.7%
same,residual activity,MAP3K3 (human),110%
same,residual activity,MAPK3 (human),101%
same,residual activity,MAPK8 (human),95.4%
same,residual activity,MARK2 (human),88%
same,residual activity,MET (human),91%
same,residual activity,NEK1 (human),90.9%
same,residual activity,NEK11 (human),109%
same,residual activity,NTRK3 (human),90.5%
same,residual activity,PAK3 (human),94.8%
same,residual activity,PBK (human),101%
same,residual activity,PLK1 (human),93.9%
same,residual activity,PRKCA (human),89.9%
same,residual activity,PRKCB2 (human),96.7%
same,residual activity,PRKCH (human),87.4%
same,residual activity,PRKCZ (human),96.9%
same,residual activity,PTK2B (human),96.1%
same,residual activity,RPS6KA4 KD2 (human),95.3%
same,residual activity,SIK2 (human),116%
same,residual activity,TBK1 (human),97.7%
same,residual activity,WNK2 (human),95.7%
same,residual activity,YES1 (human),86.3%
CN([C@@H](Cc1ccc(OS(=O)(=O)c2cccc3cnccc23)cc1)C(=O)N1CCN(c2ccccc2)CC1)S(=O)(=O)c1cccc2cnccc12,residual activity,AURKA (human),86.2%
same,residual activity,CAMK4 (human),102%
same,residual activity,CAMKK2 (human),84.2%
same,residual activity,CDC42BPA (human),98.9%
same,residual activity,CDK2 CCNE1 (human),94.9%
same,residual activity,CDK6 CCND3 (human),105%
same,residual activity,CHEK1 (human),99.5%
same,residual activity,CLK1 (human),97.3%
same,residual activity,CSNK2A1 (human),100%
same,residual activity,DCLK2 (human),94.1%
same,residual activity,DYRK1B (human),101%
same,residual activity,EPHA1 (human),102%
same,residual activity,EPHA3 (human),102%
same,residual activity,FGFR3 (human),98.8%
same,residual activity,FLT1 (human),86.5%
same,residual activity,FYN (human),101%
same,residual activity,GRK4 (human),96.5%
same,residual activity,GRK7 (human),105%
same,residual activity,HCK (human),97.4%
same,residual activity,LYN (human),101% and 92.1%
same,residual activity,MAP3K3 (human),96.4%
same,residual activity,MAPK3 (human),90.6%
same,residual activity,MAPK8 (human),94.6%
same,residual activity,MAPKAPK5 (human),97%
same,residual activity,MARK2 (human),103%
same,residual activity,MET (human),114%
same,residual activity,NEK1 (human),102%
same,residual activity,NEK11 (human),103%
same,residual activity,NTRK3 (human),97.5%
same,residual activity,PAK3 (human),102%
same,residual activity,PBK (human),99.2%
same,residual activity,PLK1 (human),96.7%
same,residual activity,PRKCA (human),105%
same,residual activity,PRKCH (human),89.8%
same,residual activity,PRKCZ (human),101%
same,residual activity,PTK2B (human),103%
same,residual activity,RPS6KA4 KD2 (human),98.7%
same,residual activity,SIK2 (human),108%
same,residual activity,TBK1 (human),101%
same,residual activity,WNK2 (human),100%
same,residual activity,YES1 (human),110%
O=C1NC(=O)C(c2cn(CCCO)c3ncccc23)=C1c1cnccn1,residual activity,AURKA (human),107%
same,residual activity,CAMK4 (human),95.6%
same,residual activity,CAMKK2 (human),115%
same,residual activity,CDC42BPA (human),78.6%
same,residual activity,CDK2 CCNE1 (human),85.1%
same,residual activity,CDK6 CCND3 (human),84.4%
same,residual activity,CHEK1 (human),141%
same,residual activity,CLK1 (human),88.5%
same,residual activity,CSNK2A1 (human),78.9%
same,residual activity,DCLK2 (human),90.1%
same,residual activity,DYRK1B (human),93.2%
same,residual activity,EPHA1 (human),73.9%
same,residual activity,EPHA3 (human),102%
same,residual activity,FGFR3 (human),78.7%
same,residual activity,FLT1 (human),89.4%
same,residual activity,FYN (human),107%
same,residual activity,GRK4 (human),90.1%
same,residual activity,GRK7 (human),118%
same,residual activity,HCK (human),63.4%
same,residual activity,LYN (human),101% and 112%
same,residual activity,MAP3K3 (human),88.3%
same,residual activity,MAPK3 (human),94.5%
same,residual activity,MAPK8 (human),99.6%
same,residual activity,MAPKAPK5 (human),98.6%
same,residual activity,MARK2 (human),97.5%
same,residual activity,MET (human),121%
same,residual activity,NEK1 (human),91.9%
same,residual activity,NEK11 (human),108%
same,residual activity,NTRK3 (human),79.7%
same,residual activity,PAK3 (human),92.9%
same,residual activity,PBK (human),94.9%
same,residual activity,PLK1 (human),103%
same,residual activity,PRKCA (human),91.1%
same,residual activity,PRKCH (human),81.6%
same,residual activity,PRKCZ (human),88.5%
same,residual activity,PTK2B (human),94%
same,residual activity,RPS6KA4 KD2 (human),101%
same,residual activity,SIK2 (human),101%
same,residual activity,TBK1 (human),98.8%
same,residual activity,WNK2 (human),104%
same,residual activity,YES1 (human),80.1%
